The record followed here is PMC8146336, “The Mechanisms of Thiosulfate Toxicity against Saccharomyces cerevisiae” (Antioxidants, 2021).

The target in this assay is T1, cytochrome c oxidase (Saccharomyces cerevisiae, UniProt P00401+P00410).
T1 construct: gene COX1; native complex IV in whole sulfur-starved yeast cells; not purified; with Cytochrome c oxidase subunit 3; Cytochrome c oxidase subunit 4, mitochondrial; Cytochrome c oxidase subunit 5A, mitochondrial; Cytochrome c oxidase subunit 6, mitochondrial; Cytochrome c oxidase subunit 7, mitochondrial; Cytochrome c oxidase subunit 8, mitochondrial; Cytochrome c oxidase subunit 9, mitochondrial; Cytochrome c oxidase subunit 12, mitochondrial; Cytochrome c oxidase subunit 13, mitochondrial
Kind of assay: oxygen consumption of whole cells with TMPD/ascorbate as electron donor. The assay is classed as cell-based. To be noted: 10 mM thiosulfate, 12.5 mM ascorbate, 1.4 mM TMPD, PBS, sulfur-starved cells OD600 10; CuB binding only proposed.

Take `O=S(O)(O)=S` [thiosulfate]: the “inhibition at 10 mM” value is “In the assay, thiosulfate inhibited cytochrome c oxidase (Figure 5E)”.
